From ChEMBL document CHEMBL3507680, “University of Dundee, Gates Library screen for HepG2 cell viability” come the findings set out here.

Each structure is given as a SMILES string.

The nature of the data set: Human HepG2 cell viability assay in 384 well format. The class given is toxicity, cell-based. More on the design: dose 125 nL, time 70.5 hour; concentration not given beside the values. The following applies: HepG2 cells, read-out: Inhibition.
Take `CN(C)C(=O)CC1CC2(CCN(CC3CC3)CC2)Oc2ccccc21` (stereo unspecified): the cytotoxicity at 70.5 h is -3.69%.

In the case of `N#Cc1ccc(N2CCN(c3cnccn3)CC2)c(C(F)(F)F)c1`, the cytotoxicity at 70.5 h was determined as 2.94%.

With `CN(C)Cc1cnc(C2CCN(C(=O)c3cccc(Cl)c3)C2)[nH]1` (stereo unspecified), the cytotoxicity at 70.5 h was -3.59%.

As for `CC(C)(C)C(O)CCNC(=O)c1ccc(F)cc1Cl` (stereo unspecified), the cytotoxicity at 70.5 h is -16.1%.

As for `NC(=O)C1CCN(C(=O)NC2CCN(CC3CCCC3)C2)CC1` (stereo unspecified), the cytotoxicity at 70.5 h is 9.67%.

For `O=C(Cn1nc(-c2cccs2)ccc1=O)N1CCCCCC1`, the cytotoxicity at 70.5 h is -24.9%.

In the case of `COc1ccc(OCc2cc(C(=O)N3CCOCC3)n[nH]2)c(Cl)c1`, the cytotoxicity at 70.5 h is -2.87%.

For the compound `CN(CC(=O)N1CCCC1c1cnn(C)c1)Cc1ccccc1` (stereo unspecified), the cytotoxicity at 70.5 h is -11.9%.

`O=C(Nc1ccccc1)c1n[nH]c(-n2cnnc2)n1`: the cytotoxicity at 70.5 h is -2.23%.

Consider `CCCc1noc(CCC(=O)N2CCCC(c3ccn[nH]3)C2)n1` (stereo unspecified), for which the cytotoxicity at 70.5 h is -9.26%.

`CCC1=N[C@@]2(CC[C@@H]3CN(S(=O)(=O)CC(C)C)C[C@@H]32)C(=O)N1CC1CC1`: the cytotoxicity at 70.5 h was found to be 0.026%.

Turning to `COCC(=O)Nc1cnn(COc2ccc(F)cc2Cl)c1`, the cytotoxicity at 70.5 h was 2.16%.

For `O=C(c1cccs1)N1CCC2(CC1)CN(c1ccsc1)C(=O)CO2`, the cytotoxicity at 70.5 h was -8.69%.

For `COc1ccc(CCC2CCCN(CC(=O)O)C2)cc1` (stereo unspecified), the cytotoxicity at 70.5 h is -6.84%.

Turning to `CC[C@H](C)[C@H](NC(=O)c1ccc(-n2cnnn2)cc1)C(=O)OC`, the cytotoxicity at 70.5 h is 10.1%.

`CN(Cc1cnn(C)c1)CC(O)c1ccc2c(c1)OCCCO2` (stereo unspecified): the cytotoxicity at 70.5 h worked out at 17.4%.

Regarding `COC(=O)N1CCc2ccccc2C1C(=O)NCc1ccco1` (stereo unspecified), the cytotoxicity at 70.5 h was -10.1%.

In the case of `CNC(=O)C1CN(c2ncccn2)CCN1Cc1ccccc1` (stereo unspecified), the cytotoxicity at 70.5 h is -3.64%.

As to `COc1cc(CNc2cc(N3CCCC3CO)ncn2)ccn1` (stereo unspecified), the cytotoxicity at 70.5 h is 24.7%.

On to `O=C1Nc2ccccc2CC12CCCN2Cc1ccc(C(F)(F)F)cc1` (stereo unspecified), for which the cytotoxicity at 70.5 h was 6.34%.

With `O=C(C1=CCCC1)N1C[C@@H]2COC[C@]2(COCc2ccncc2)C1`, the cytotoxicity at 70.5 h is -3.75%.

Regarding `Cc1noc(C)c1CN1CC2(CCN(C(=O)c3c[nH]cn3)C2)CC1=O` (stereo unspecified), the cytotoxicity at 70.5 h was -11.1%.

With `CSc1ccc(-c2nc(CN3C[C@@H](C)NC[C@@H]3C)c(C)o2)cc1`, the cytotoxicity at 70.5 h is -4.1%.

`CCOCC(O)CN1CCN(C(=O)Cc2ccc(C)nc2)CC1` (stereo unspecified): the cytotoxicity at 70.5 h was -0.471%.

In the case of `Cc1cc(C(=O)N2CCc3c(nc(-c4ccncc4)[nH]c3=O)C2)no1`, the cytotoxicity at 70.5 h stood at 2.99%.

As to `Cc1n[nH]cc1C(=O)NCc1cccnc1N1CCc2ccccc2C1`, the cytotoxicity at 70.5 h was -3.05%.

On to `CC(=O)Nc1cccc(C(=O)N(C)C(C)Cc2cc(C)ccn2)c1` (stereo unspecified), for which the cytotoxicity at 70.5 h is -2.97%.

Regarding `CSCC(C)C(=O)NCc1c(C)nc2cc(=O)[nH]n2c1C` (stereo unspecified), the cytotoxicity at 70.5 h is 7.35%.

With `CC(C)=CCN1CCN(CCCc2ccccc2)[C@H]2CS(=O)(=O)C[C@H]21`, the cytotoxicity at 70.5 h is -6.15%.

As for `CCNC(=O)[C@@H]1C[C@@H](NC(=O)c2cccn2C)CN1CCCSC`, the cytotoxicity at 70.5 h was -6.56%.

In the case of `CCc1nc(C2CCCN(C(=O)C3=NN(C(C)C)C(=O)CC3)C2)no1` (stereo unspecified), the cytotoxicity at 70.5 h is -13.3%.

On to `CC(C)N(C)CCNC(=O)NCc1ccccc1-n1cccn1`, for which the cytotoxicity at 70.5 h was -7.41%.

As for `Cc1ccc2c(ccn2CC(=O)NC[C@@H]2CCCN3CCCC[C@H]23)c1`, the cytotoxicity at 70.5 h was -2.59%.

With `Cc1nn(C)c(C)c1NC(=O)CCn1ncc2ccc(Cl)cc21`, the cytotoxicity at 70.5 h is -11.9%.

In the case of `COc1ccc(C)cc1-n1cnnc1C1CCOCC1`, the cytotoxicity at 70.5 h was -2.32%.

Turning to `CN(C)CCN1CCN(Cc2nccs2)Cc2cccnc21`, the cytotoxicity at 70.5 h turned out to be 2.78%.

For `Cc1cccc(CN2C[C@@H]3OCCN(CC(=O)N(C)C)[C@@H]3C2)c1`, the cytotoxicity at 70.5 h is -8.16%.

As to `CNC(=O)[C@H]1C[C@@H]2CN(Cc3cccc(C)c3)C[C@H]1O2`, the cytotoxicity at 70.5 h is -6.34%.

For `Cc1nn(-c2ccccc2)cc1C(=O)N1CCCC(n2ccnc2)C1` (stereo unspecified), the cytotoxicity at 70.5 h is -0.753%.

Take `Cc1nc(CN2CC[C@H]3[C@@H]2CCC(=O)N3c2cnn(C)c2)cs1`: the cytotoxicity at 70.5 h was determined as 13.5%.

With `COc1ccc2c(ccn2CCC(=O)NCCCC(=O)O)c1`, the cytotoxicity at 70.5 h was -10.4%.

`CS(=O)(=O)N1CCC(C(=O)N2CCN(Cc3cccc(Cl)c3)CC2)CC1`: the cytotoxicity at 70.5 h is -8.76%.

Regarding `Cc1ccccc1NC(=O)CCNC(=O)c1ccoc1`, the cytotoxicity at 70.5 h was 2.88%.

Take `COCc1cc(N2CCOC(c3ccc(Cl)cc3)C2)ncn1` (stereo unspecified): the cytotoxicity at 70.5 h is -10.8%.

With `CN(Cc1cn2c(n1)CN(C(=O)c1cccnc1)CC2)Cc1ccco1`, the cytotoxicity at 70.5 h was -2.78%.

As to `Cn1cc(CN2C[C@@H]3COC[C@]3(C(=O)NCCc3ccccc3)C2)cn1`, the cytotoxicity at 70.5 h was -8.15%.

Turning to `CC(C)CO[C@@H]1CC[C@H]2[C@H]1OCCN2S(=O)(=O)C1CC1`, the cytotoxicity at 70.5 h turned out to be 12.4%.

In the case of `O=C(c1ccn(COc2ccc(F)cc2)n1)N1CCCCCC1`, the cytotoxicity at 70.5 h is -3.63%.

For the compound `CC(=O)c1cccc(OCC(=O)NS(=O)(=O)c2ccc(C)s2)c1`, the cytotoxicity at 70.5 h worked out at 28.6%.

Consider `Cc1nn(C)c(C)c1-c1cnc(CC2CCNC2)cn1` (stereo unspecified), for which the cytotoxicity at 70.5 h is -4.3%.

Take `CC(CNC(=O)c1cc(Cl)ccc1F)N1CCCC1` (stereo unspecified): the cytotoxicity at 70.5 h is -13.5%.

For the compound `COc1ccc([C@@H]2CN(C(=O)CCc3cc(Cl)no3)C[C@H]2N(C)C)cc1`, the cytotoxicity at 70.5 h was 4%.

Regarding `CN(CCO)Cc1nnc(C2CCN(C[C@H]3[C@@H]4CNC[C@@H]43)CC2)n1C`, the cytotoxicity at 70.5 h stood at 9.78%.

For `Cc1ccc(CN2CCCn3nnc(COCC4CC4)c3C2)s1`, the cytotoxicity at 70.5 h was -1.67%.

For `COc1cccc(CNCc2nnc3n2CC(C(F)(F)F)CC3)c1` (stereo unspecified), the cytotoxicity at 70.5 h amounted to 6.13%.

In the case of `COCC(=O)N1CCCC2(COCCN(CCN(C)C)C2)C1` (stereo unspecified), the cytotoxicity at 70.5 h was found to be 8.27%.

Turning to `COCCN1CC(=O)c2sc(NCc3ccccc3)nc2C1`, the cytotoxicity at 70.5 h came out at 0.849%.

As for `C[C@@H]1C(=O)NC[C@H]2CN(Cc3ccsc3)C[C@H]21`, the cytotoxicity at 70.5 h is -2.8%.

For the compound `Cc1ccc(N2CCCN(C(=O)CCCn3ccnc3C)CC2)nn1`, the cytotoxicity at 70.5 h was -0.226%.

On to `CCN1C[C@H]2[C@@H](C1)N(c1ncc(F)cn1)CC[C@H]2OC`, for which the cytotoxicity at 70.5 h came to 14.2%.

Turning to `O=C(c1ccoc1)N(Cc1ccccn1)C1CC1`, the cytotoxicity at 70.5 h was -14.2%.

For `O=C(Cc1ccccc1)N1CCC2(CCN2Cc2ccc(F)cc2)C1` (stereo unspecified), the cytotoxicity at 70.5 h is 7.36%.

With `O=C(c1ccc[nH]1)N1CCN(C(c2ccccc2)C(F)(F)F)CC1` (stereo unspecified), the cytotoxicity at 70.5 h was -7.16%.

As for `O=C(COCC1CC1)Nc1cc(S(=O)(=O)NC2CC2)ccc1F`, the cytotoxicity at 70.5 h was -2.2%.

As for `c1cnc(N2CCCC(NCc3ccc(-n4ccnc4)cc3)C2)nc1` (stereo unspecified), the cytotoxicity at 70.5 h is -4.91%.

Turning to `CCC(CO)NC(=O)c1cc(COc2ccc(OC)cc2Cl)[nH]n1` (stereo unspecified), the cytotoxicity at 70.5 h is -10.5%.

As for `CCOCCN1CCN(Cc2nnc(-c3ccco3)o2)CC1`, the cytotoxicity at 70.5 h was -5.68%.

With `Cc1cc(CN2CCN(C(=O)NC(C)Cn3ccnc3)CC2)no1` (stereo unspecified), the cytotoxicity at 70.5 h is -3.28%.

In the case of `O=C(NS(=O)(=O)c1cc(Cl)ccc1Cl)c1cccc2c1OCCO2`, the cytotoxicity at 70.5 h amounted to 58.5%.

As to `CS(=O)(=O)N1CC2(CCN(c3nccs3)CC2)c2ccccc21`, the cytotoxicity at 70.5 h came out at 5.59%.

`CCC(C)[C@H](N)c1nnc(SCC(=O)Nc2ccc(Br)cc2)o1` (stereo partly specified): the cytotoxicity at 70.5 h is -13.2%.

Take `O=S(=O)(c1cccs1)N1CC[C@@H](O)[C@@H]1Cc1ccncc1`: the cytotoxicity at 70.5 h came out at 18%.

As for `CN(C)CC(=O)N1CCC2(CC1)Cc1ccccc1CN(C)C2=O`, the cytotoxicity at 70.5 h was determined as 23.3%.

For the compound `O=C(NCc1ccncc1)N(Cc1ccc(F)cc1F)C1CC1`, the cytotoxicity at 70.5 h was -5.41%.

Regarding `COc1ccc(F)c(CN2CCCC3(CCN(C4CCOCC4)C3)C2)c1` (stereo unspecified), the cytotoxicity at 70.5 h was -4.15%.

For the compound `CCCS(=O)(=O)NC1CCN(c2nnc(C)c(C)c2C#N)CC1`, the cytotoxicity at 70.5 h was -6.18%.

On to `Cc1noc(C)c1CN(C)C(=O)CN1CC(c2ccccc2)CC1=O` (stereo unspecified), for which the cytotoxicity at 70.5 h is -6.3%.

With `COc1ccc(C(=O)N2CCC(Nc3cccnn3)CC2)c(F)c1`, the cytotoxicity at 70.5 h was -3.14%.

As to `CCC(=O)Nc1cccc(OCC(=O)N(C)CCCC2CCCO2)c1` (stereo unspecified), the cytotoxicity at 70.5 h is -3.54%.

As to `c1ccc(CCCN2CC[C@H](c3nnc(-c4cccnc4)o3)C2)cc1`, the cytotoxicity at 70.5 h is -10.6%.

As to `CC(C)Cc1cc(C(=O)NCC2CCCN(Cc3ccco3)C2)on1` (stereo unspecified), the cytotoxicity at 70.5 h was -10.7%.

In the case of `Cc1cccc(CN2C(=O)CC[C@@H]3[C@H]2CCN3Cc2cccnc2)n1`, the cytotoxicity at 70.5 h is -0.831%.

Regarding `CC(C)(C)C(O)CN1CCN(CC(=O)NC(C2CC2)C2CC2)CC1` (stereo unspecified), the cytotoxicity at 70.5 h stood at 2.37%.

Take `CC(C)CCc1nc(CNCC2CN(C)CCO2)cs1` (stereo unspecified): the cytotoxicity at 70.5 h is -1.37%.

`CC(SCC(=O)N(C)CC(=O)NC1CC1)c1cc(F)ccc1F` (stereo unspecified): the cytotoxicity at 70.5 h came out at 14.2%.

As for `CC1CN(S(=O)(=O)c2ccc(F)cc2)c2cccnc2O1` (stereo unspecified), the cytotoxicity at 70.5 h amounted to 1.22%.

`CC(C)(O)CCc1cccc(C(=O)NCC2CN(S(C)(=O)=O)CCO2)c1` (stereo unspecified): the cytotoxicity at 70.5 h was found to be 10.1%.

Regarding `Cc1ccccc1-c1noc(-c2ccc(NCC3COCCO3)nc2)n1` (stereo unspecified), the cytotoxicity at 70.5 h is -3.64%.

Turning to `Cc1cc(C)c(CNC(=O)N(C)Cc2cccc(C#N)c2)c(=O)[nH]1`, the cytotoxicity at 70.5 h was -1.75%.

With `Cc1ccc(S(=O)(=O)N2CCC(c3n[nH]cc3C)C2)cc1` (stereo unspecified), the cytotoxicity at 70.5 h was -1.04%.

For the compound `CCCC(=O)N1CCC(c2cc3n(n2)[C@@H](C(F)(F)F)C[C@@H](C)N3)CC1`, the cytotoxicity at 70.5 h is -3.97%.

As to `O=C(Cc1cccs1)N1C[C@@H]2OCCN(CC3CCCO3)[C@@H]2C1` (stereo partly specified), the cytotoxicity at 70.5 h was -1.51%.

For `CCOc1ccc(CC(CNC(=O)c2ccoc2C)C(N)=O)cc1` (stereo unspecified), the cytotoxicity at 70.5 h is -10.1%.

As to `CCN(CC)C(=O)c1ccc(CNc2ncc(C#N)cc2Cl)cc1`, the cytotoxicity at 70.5 h was -7.7%.

As to `CC(C)(O)CN1CCN(C(=O)COC2CCCCC2)CC1`, the cytotoxicity at 70.5 h was 1.44%.

Consider `Cc1nn(C)c(Cl)c1C1CCCN1C(=O)c1nccnc1N` (stereo unspecified), for which the cytotoxicity at 70.5 h is -11.6%.
